Values of other authors as cited in paper PMC9795861, “Inclusion complexes of the steroid hormones 17β-estradiol and progesterone with β- and γ-cyclodextrin hosts: syntheses, X-ray structures, thermal analyses and API solubility enhancements” (Beilstein Journal of Organic Chemistry, 2022).
Like-named read-outs stand apart in the source and are kept apart here.

How the values were obtained:
[1] = set-up: method as in earlier work

SMILES | aqueous solubility (at 27 °C, ethinylestradiol) | oral bioavailability relative to that of BES [1] | aqueous solubility (at 25 °C, pure progesterone, ref 6-8 (b3))
C#C[C@]1(O)CC[C@H]2[C@@H]3CCc4cc(O)ccc4[C@H]3CC[C@@]21C [ethinylestradiol] | 11.3 × 10^−3 mg·cm^−3 | significantly higher | –
CC(=O)[C@H]1CC[C@H]2[C@@H]3CCC4=CC(=O)CC[C@]4(C)[C@H]3CC[C@]12C [progesterone] | – | – | 8.81 × 10^−3 mg·cm^−3
